Laboratory results published in US20230157290A1, “ALKENE-CONTAINING CARBOXYLATE COMPOUND AND USE THEREOF” (SHENYANG SINOCHEM AGROCHEMICALS R&D CO., LTD, priority 2019, published 2023).

What was measured:
Format in all cases: in vivo
Details in all cases: after emergence
piemarker = assay: Herbicidal activity, post-emergence stem and leaf spray, greenhouse: piemarker control
Description: (§1) Seeds of broadleaf weeds (zinnia and piemarker) or grassy weeds (green bristlegrass and barnyard grass) were respectively sown in a paper cup having a diameter of 7 cm and containing nutrient soil; after sowing, the seeds were covered with 1 cm of soil, the soil was pressed and watered, and then the seeds were cultivated in a greenhouse according to a conventional method; and stems and leaves were sprayed after 2-3 leaf stage of the weeds.
(§2) After the original medicinal acetone was dissolved, the test requires to use 1‰ of Tween 80 to stand in running water to prepare the solution to be tested with a required concentration. According to the design dose of the test, spray treatment was carried out on a track-type crop sprayer (designed and produced by British Engineer Research Ltd.) (spray pressure is 1.95 kg/cm^2, spray volume is 500 L/hm^2 and track speed is 1.48 km/h). The test was repeated for three times. The test material was treated and then placed in an operation hall. The medicinal liquid was naturally dried in the shade, and then was placed in a greenhouse and managed according to the conventional method. The response of the weeds to the drug was observed and recorded. After treatment, the control effects of the test drug on the weeds were visually inspected regularly, expressed by 0-100%. “0” represents no control effect and “100%4” represents complete killing.
According to the above test method, part of the compounds of the formula and KC1 are selected for activity test of controlling the piemarker.

barnyard grass = assay: Herbicidal activity, post-emergence stem and leaf spray, greenhouse: barnyard grass control
Description: as §1, §2
According to the above test method, part of the compounds of the formula I and KC1 or KC2 are selected for activity test of controlling the barnyard grass.

zinnia = assay: Herbicidal activity, post-emergence stem and leaf spray, greenhouse: zinnia control
Description: as §1, §2
According to the above test method, part of the compounds of the formula I and KC1 are selected for activity test of controlling the zinnia.

green bristlegrass = assay: Herbicidal activity, post-emergence stem and leaf spray, greenhouse: green bristlegrass control
Description: as §1, §2
According to the above test method, part of the compounds of the formula I and KC1 or KC2 are selected for activity test of controlling the green bristlegrass.

[1] = dose 600 g a.i./hm^2, visual, 0 = no control effect, 100% = complete killing

| SMILES | Piemarker control activity (control effect %) (piemarker; dose 37.5 g a.i./hm^2) [%] | Piemarker control activity (control effect %) (piemarker; dose 150 g a.i./hm^2) [%] | Piemarker control activity (control effect %) (piemarker; dose 600 g a.i./hm^2) [%] | Barnyard grass control activity (control effect %) (barnyard grass; dose 37.5 g a.i./hm^2) [%] | Barnyard grass control activity (control effect %) (barnyard grass; dose 150 g a.i./hm^2) [%] | Barnyard grass control activity (control effect %) (barnyard grass; dose 600 g a.i./hm^2) [%] | Zinnia control activity (control effect %) (zinnia; dose 37.5 g a.i./hm^2) [%] | Zinnia control activity (control effect %) (zinnia; dose 150 g a.i./hm^2) [%] | Zinnia control activity (control effect %) (zinnia; [1]) [%] | Green bristlegrass control activity (control effect %) (green bristlegrass; dose 37.5 g a.i./hm^2) [%] | Green bristlegrass control activity (control effect %) (green bristlegrass; dose 150 g a.i./hm^2) [%] | Green bristlegrass control activity (control effect %) (green bristlegrass; dose 600 g a.i./hm^2) [%] |
| --- | --- | --- | --- | --- | --- | --- | --- | --- | --- | --- | --- | --- |
| Cc1nn(C)c(OC(=O)/C=C/c2ccccc2)c1C(=O)c1ccc(C(F)(F)F)cc1S(C)(=O)=O [Compound 1-1] | 90 | 95 | 100 | – | – | – | – | – | – | – | – | – |
| Cc1c(S(C)(=O)=O)ccc(C(=O)c2cnn(C)c2OC(=O)/C=C/c2ccc3c(c2)OCO3)c1Cl [Compound 1-42] | 90 | 95 | 100 | 80 | 95 | 100 | 100 | 100 | 100 | – | – | – |
| COCCOCc1c(S(C)(=O)=O)ccc(C(=O)c2c(C)nn(C)c2OC(=O)/C=C/c2ccc(-c3ccccc3)cc2)c1Cl [Compound 1-81] | – | – | – | 80 | 90 | 95 | 90 | 95 | 100 | – | – | – |
| COCCOCc1c(S(C)(=O)=O)ccc(C(=O)c2c(C)nn(C)c2OC(=O)/C=C/c2ccc3c(c2)OCO3)c1Cl [Compound 1-82] | – | – | – | 90 | 95 | 100 | – | – | – | – | – | – |
| COCCOc1c(S(C)(=O)=O)ccc(C(=O)c2c(C)nn(C)c2OC(=O)/C=C/c2ccccc2)c1C [Compound 1-259] | 100 | 100 | – | 100 | 100 | – | – | – | – | 100 | 100 | – |
| CCOc1c(S(C)(=O)=O)ccc(C(=O)c2c(C)nn(C)c2OC(=O)/C=C/c2ccccc2)c1C [Compound 1-280] | – | – | – | 85 | 95 | 100 | – | – | – | 80 | 90 | 100 |
| Cc1c(C(=O)c2cnn(C)c2OC(=O)/C=C/c2ccccc2)ccc(S(C)(=O)=O)c1C1=NOCC1 [Compound 1-292] | 90 | 90 | 95 | 90 | 95 | 100 | – | – | – | 90 | 90 | 95 |
| Cc1nn(C)c(OC(=O)C2=CCCCC2)c1C(=O)c1ccc(S(C)(=O)=O)c(OCC(F)(F)F)c1C [Compound 2-37] | – | – | – | 95 | 100 | 100 | – | – | – | – | – | – |
| COCCOc1c(S(C)(=O)=O)ccc(C(=O)c2cnn(C)c2OC(=O)C2=CCCCC2)c1C [Compound 2-67] | – | – | – | 90 | 100 | 100 | – | – | – | – | – | – |
| Cc1nn(C)c(OC(=O)C2=CCCCC2)c1C(=O)c1ccc(S(C)(=O)=O)c(OCC2CCCO2)c1C (stereo not shown) [Compound 2-73] | – | – | – | 95 | 100 | 100 | – | – | – | – | – | – |
| Cc1c(C(=O)c2cnn(C)c2OC(=O)C2=CCCCC2)ccc(S(C)(=O)=O)c1C1=NOCC1 [Compound 2-121] | – | – | – | – | – | – | – | – | – | 80 | 90 | 98 |
| Cc1c(C(=O)c2cnn(C)c2OC(=O)C2=CCCC2)ccc(S(C)(=O)=O)c1C1=NOCC1 [Compound 2-123] | – | – | – | 100 | 100 | 100 | – | – | – | 90 | 100 | 100 |
| Cc1nn(C)c(OC(=O)/C=C/c2ccccc2)c1C(=O)c1ccc([N+](=O)[O-])cc1Cl [KC1, reference compound] | 20 | 70 | 100 | 0 | 0 | 0 | 0 | 0 | 0 | 10 | 10 | 10 |
| Cn1nc(C2CC2)c(C(=O)c2ccc(C(F)(F)F)cc2S(C)(=O)=O)c1OC(=O)C1=CCCCC1 [KC2, reference compound] | – | – | – | 60 | 90 | – | – | – | – | 30 | 60 | – |
